Measured values published in publication PMC6424957 (Scientific Reports, 2019).

Assays:
BChE from equine serum = target: T1, BChE from equine serum (Equus caballus, UniProt P81908); assay type: biochemical; conditions: for αKi (non-competitive component), BChE / Ki: Lineweaver-Burk analysis; for Ki: read-out: Ki (competitive component), BChE
T1 construct: butyrylcholinesterase (BChE, EC 3.1.1.8, from equine serum); purchased Sigma-Aldrich (Germany); host or cells: equine serum
Procedure: To elucidate the inhibition mechanisms for the active compounds, the AChE and BChE residual activity was determined in the presence of 3 increasing concentrations of the test compounds and 6 decreasing concentrations of the substrates. The test compounds were preincubated with the enzymes at 25 °C for 5 min, followed by the addition of the substrates. Parallel controls were made for an assay of the rate of hydrolysis of the same concentrations of substrates in the solutions with no inhibitor. […] Each experiment was performed three times.

[1] = cited from earlier work

T1 sequence (P81908 whole entry): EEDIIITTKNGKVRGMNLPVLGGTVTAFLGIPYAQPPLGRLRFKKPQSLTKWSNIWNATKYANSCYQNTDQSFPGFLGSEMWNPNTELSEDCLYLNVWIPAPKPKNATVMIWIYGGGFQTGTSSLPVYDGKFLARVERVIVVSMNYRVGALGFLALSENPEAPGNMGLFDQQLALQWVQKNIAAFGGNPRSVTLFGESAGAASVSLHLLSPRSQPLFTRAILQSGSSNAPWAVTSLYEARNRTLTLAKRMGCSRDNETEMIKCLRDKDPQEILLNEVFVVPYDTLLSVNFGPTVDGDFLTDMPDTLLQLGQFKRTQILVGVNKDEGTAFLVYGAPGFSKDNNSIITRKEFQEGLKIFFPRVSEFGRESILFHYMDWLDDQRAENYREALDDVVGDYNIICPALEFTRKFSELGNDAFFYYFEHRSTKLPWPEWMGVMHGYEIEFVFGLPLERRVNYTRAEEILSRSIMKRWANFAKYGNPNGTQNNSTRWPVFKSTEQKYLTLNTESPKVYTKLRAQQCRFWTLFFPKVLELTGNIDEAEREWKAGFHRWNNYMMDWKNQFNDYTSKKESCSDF

In the case of `Cc1ccc2c(c1)c1c(n2CCC(=O)N2c3ccc(N(C)C)cc3Sc3cc(N(C)C)ccc32)CCN(C(C)C)C1.Cl.Cl.Cl` [Compound 6], the “αKi (non-competitive component), BChE” value (BChE from equine serum) is reported as 2.64 ± 0.24 µM and the Ki (BChE from equine serum) is reported as 530 ± 40 nM.
In the case of `CN(C)c1ccc2nc3ccc(=[N+](C)C)cc-3sc2c1` [MB, methylene blue, reference compound], the redox potential [1] is listed as 11 mV.
With `Cc1ccc2c(c1)c1c(n2CCC(=O)N2c3ccc(N(C)C)cc3Sc3cc(N(C)C)ccc32)CCN(C)C1` [Compound 3] the “αKi (non-competitive component), BChE” value (BChE from equine serum) was 2.09 ± 0.19 µM, the Ki (BChE from equine serum) was 370 ± 30 nM and the “type of BChE inhibition” value (BChE from equine serum; Lineweaver-Burk plots, changes in Vmax and Km) was “mixed-type inhibition”.
